Measured values taken from ChEMBL document CHEMBL5331078, “1-Benzyloxy-5-phenyltetrazole derivatives highly active against androgen receptor-dependent prostate cancer cells” (Eur J Med Chem, 2023).
Calls of active or inactive are those of the source. The rule behind the calls is not given here.

Tests used:
[1] = Clearance in rat at 5 mg/kg, iv measured upto 24 hrs by LC-MS/MS analysis; assay type: ADME, organism-based; settings: in vivo
[2] = tested on: CWR22R; experiment: Downregulation of E2F1 gene expression in human 22Rv1 cells at 1 uM measured after 24 to 36 hrs by RNA sequencing analysis; assay type: functional, cell-based; settings: time 24-36 hrs
[3] = tested on: CWR22R; experiment: Downregulation of BRCA1 gene expression in human 22Rv1 cells at 1 uM measured after 24 to 36 hrs by RNA sequencing analysis; assay type: functional, cell-based; settings: time 24-36 hrs
[4] = tested on: CWR22R; experiment: Downregulation of DDC gene expression in human 22Rv1 cells at 1 uM measured after 24 to 36 hrs by RNA sequencing analysis; assay type: functional, cell-based; settings: time 24-36 hrs
[5] = C0 in rat at 5 mg/kg, iv measured upto 24 hrs by LC-MS/MS analysis; assay type: ADME, organism-based; settings: in vivo
[6] = Volume of distribution at steady state in rat at 5 mg/kg, iv measured upto 24 hrs by LC-MS/MS analysis; assay type: ADME, organism-based; settings: in vivo, read-out: Vdss
[7] = tested on: CWR22R; experiment: Downregulation of BRCA2 gene expression in human 22Rv1 cells at 1 uM measured after 24 to 36 hrs by RNA sequencing analysis; assay type: functional, cell-based; settings: time 24-36 hrs
[8] = biological target: T1, Papain (Carica papaya, UniProt P00784); experiment: Inhibition of papaya papain protease activity assessed as covalent binding mode of action at 10 uM incubated for 30 mins by absorbance based analysis; settings: 0.5 h
T1 sequence (P00784 whole entry): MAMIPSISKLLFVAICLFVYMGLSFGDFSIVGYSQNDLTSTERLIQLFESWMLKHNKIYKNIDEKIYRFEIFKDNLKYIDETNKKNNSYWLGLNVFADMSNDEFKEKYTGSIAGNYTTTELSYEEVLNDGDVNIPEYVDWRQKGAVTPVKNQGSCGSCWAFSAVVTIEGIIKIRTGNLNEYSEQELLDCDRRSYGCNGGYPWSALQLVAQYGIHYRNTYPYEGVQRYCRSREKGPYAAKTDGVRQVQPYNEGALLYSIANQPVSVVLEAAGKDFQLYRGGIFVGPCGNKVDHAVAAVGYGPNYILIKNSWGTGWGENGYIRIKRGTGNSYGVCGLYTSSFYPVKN

[9] = tested on: PC-3; experiment: Antiproliferative activity against human PC-3 cells measured after 3 days by celltiter-glo luminescence assay; assay type: functional, cell-based; settings: PC-3, 72 h

Clc1ccc(COn2nnnc2-c2ccc(Cl)cc2)cc1
clearance [1]: 75.9 mL/min/kg
Activity [2]: Active
Activity [3]: Active
Activity [4]: Active
C0 at 24 h [5]: 5480 ng/mL
Vd [6]: 1.53 L/kg
Activity [7]: Active
inhibition (INH) [8]: Not Active
IC50 [9]: > 100 µM
